Assay results: the supplement of paper PMC10307832

How the values were obtained:
Experiment in all cases: relative viability (nuclei count vs DMSO), 5 days (fraction); higher = more cells survive
[1] = compound: CC(O)(CS(=O)(=O)c1ccc(F)cc1)C(=O)Nc1ccc(C#N)c(C(F)(F)F)c1 [Bicalutamide] + CC(=O)Nc1cccc(-n2c(=O)n(C3CC3)c(=O)c3c(Nc4ccc(I)cc4F)n(C)c(=O)c(C)c32)c1 [Trametinib] (partner 0.02 µM)
Procedure, shortened: (§1)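 Lung cancer cell lines in 1536-well plates were dosed by pin tool the day after seeding, either with one drug alone or with a fixed anchor-drug dose plus five library-drug doses (not always all listed) in √10 steps. After 5 days, cells were fixed and their nuclei stained in one step (final 0.05% Triton X-100, 1% formaldehyde, 1 ug/ml Hoechst), then counted on 4× images. Relative viability is the nuclei count in treated wells divided by that in vehicle wells. Values are medians of duplicate plates.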

[2] = compound: C(C(=O)C(=O)O)Br [Bromopyruvate] + COc1cc2c(Oc3ccc(NC(=O)C4(C(=O)Nc5ccc(F)cc5)CC4)cc3F)ccnc2cc1OCCCN1CCOCC1 [Foretinib] (partner 0.25 µM)
Procedure, shortened: as §1

[3] = compound: C(C(=O)C(=O)O)Br [Bromopyruvate] + O=C(CCCCCCC(=O)Nc1ccccc1)NO [Vorinostat] (partner 1 µM)
Procedure, shortened: as §1

[4] = compound: CC(O)(CS(=O)(=O)c1ccc(F)cc1)C(=O)Nc1ccc(C#N)c(C(F)(F)F)c1 [Bicalutamide] + CC1(C)CCC(c2ccc(Cl)cc2)=C(CN2CCN(c3ccc(C(=O)NS(=O)(=O)c4ccc(N[C@H](CCN5CCOCC5)CSc5ccccc5)c(S(=O)(=O)C(F)(F)F)c4)cc3)CC2)C1 [Navitoclax] (partner 0.5 µM)
Procedure, shortened: as §1

| Cell Line | relative viability ([1]; first compound 0.08 µM) | relative viability ([1]; first compound 0.253 µM) | relative viability ([1]; first compound 0.8 µM) | relative viability ([1]; first compound 2.53 µM) | relative viability ([2]; first compound 1 µM) | relative viability ([2]; first compound 3.162 µM) | relative viability ([2]; first compound 10 µM) | relative viability ([2]; first compound 31.62 µM) | relative viability ([2]; first compound 100 µM) | relative viability ([3]; first compound 1 µM) | relative viability ([3]; first compound 3.162 µM) | relative viability ([3]; first compound 10 µM) | relative viability ([3]; first compound 31.62 µM) | relative viability ([3]; first compound 100 µM) | relative viability ([4]; first compound 0.08 µM) | relative viability ([4]; first compound 0.253 µM) | relative viability ([4]; first compound 0.8 µM) | relative viability ([4]; first compound 2.53 µM) |
| --- | --- | --- | --- | --- | --- | --- | --- | --- | --- | --- | --- | --- | --- | --- | --- | --- | --- | --- |
| 201T | 0.703 | 0.725 | 0.7 | 0.738 | 1.15 | 1.08 | 1.29 | 1.21 | 1.29 | 0.967 | 1.01 | 0.984 | 0.912 | 0.971 | 1.18 | 1.24 | 1.18 | 1.22 |
| A549 |  |  |  |  | 0.949 | 0.935 | 1.07 | 0.989 | 1.06 |  |  |  |  |  | 1.33 | 1.16 | 1.36 | 1.08 |
| A-427 | 0.782 | 0.731 | 0.845 | 0.688 | 0.983 | 1.21 | 1.18 | 0.799 | 0.885 | 0.87 | 0.899 | 0.841 | 0.767 | 0.835 | 0.986 | 1.03 | 0.98 | 0.927 |
| ABC-1 |  |  |  |  | 1.09 | 0.941 | 1.14 | 0.833 | 0.95 | 1.27 |  |  |  | 0.612 |  |  |  |  |
| BEN | 1.05 | 0.94 | 1.17 | 1.1 | 0.975 | 0.668 | 0.542 | 0.741 | 0.591 | 0.588 | 0.581 | 0.485 | 0.608 | 0.411 | 0.0525 | 0.0535 | 0.0851 | 0.0653 |
| CAL-12T | 0.37 | 0.343 | 0.398 | 0.264 | 1.14 | 1.05 | 1.09 | 1.07 | 1.06 | 0.696 | 0.769 | 0.762 | 0.705 | 0.489 | 1.22 | 1.39 | 1.35 | 1.09 |
| COR-L23 | 0.616 | 0.545 | 0.71 | 0.579 | 0.905 | 0.914 | 1.02 | 0.971 | 0.434 | 0.381 | 0.473 | 0.432 | 0.387 | 0.255 | 1.17 | 1.02 | 1.11 | 0.898 |
| COR-L 105 | 0.397 | 0.371 | 0.383 | 0.381 | 0.924 | 1.18 | 0.995 | 1.08 | 0.616 | 0.708 | 0.68 | 0.645 | 0.665 | 0.411 | 0.694 | 0.696 | 0.726 | 0.703 |
| Calu-6 |  |  |  |  | 0.9 | 0.891 | 0.938 | 0.856 | 0.613 |  |  |  |  |  | 0.895 | 0.827 | 0.842 | 0.705 |
| ChaGo-K-1 | 0.854 | 0.865 | 1.03 | 0.926 | 0.898 | 0.937 | 1.15 | 1.02 | 0.998 | 0.818 | 0.755 | 0.879 | 0.703 | 0.67 | 0.983 | 1.02 | 1.17 | 0.793 |
| EBC-1 |  |  |  |  | 0.1 | 0.107 | 0.102 | 0.112 | 0.0941 |  |  |  |  |  | 0.477 | 0.491 | 0.372 | 0.296 |
| EKVX | 0.319 | 0.31 | 0.359 | 0.283 | 0.83 | 0.779 | 0.929 | 0.819 | 1.34 | 0.668 | 0.685 | 0.718 | 0.729 | 0.713 | 1.02 | 1.01 | 1.15 | 0.894 |
| EMC-BAC-2 | 0.911 | 0.771 | 0.891 | 0.728 | 0.964 | 0.979 | 1.06 | 0.933 | 1.1 | 0.719 | 0.336 | 0.277 |  | 0.389 | 1.19 | 1.11 | 1.21 | 1.16 |
| EPLC-272H | 0.315 | 0.281 | 0.332 | 0.281 | 0.777 | 0.718 | 0.81 | 0.688 | 0.888 | 0.36 | 0.38 | 0.359 | 0.44 | 0.347 | 1.33 | 1.03 | 1.23 | 0.956 |
| H3255 | 0.666 | 0.567 | 0.717 | 0.569 | 0.902 | 0.806 | 0.93 | 0.938 | 0.922 | 0.941 | 0.781 | 0.771 | 0.763 | 0.85 | 0.524 | 0.489 | 0.631 | 0.4 |
| HARA | 0.942 |  | 0.634 | 0.48 | 0.91 | 0.868 | 0.984 | 0.824 | 0.93 | 0.692 | 0.511 | 0.628 | 0.528 | 0.37 | 1.15 | 1.15 | 1.11 | 1.13 |
| HCC-15 | 0.384 | 0.338 | 0.412 | 0.371 | 1 | 1.05 | 1.07 | 1.08 | 1.02 | 0.792 | 0.838 | 0.782 | 0.818 | 0.686 | 0.757 | 0.685 | 0.761 | 0.712 |
